Row | Structure (SMILES) | melting point [°C]
1 | O=C(O)c1cnc(O)nc1-c1ccncc1 | 309 to 310
2 | CC1(C)CC(=O)C2=C(C1)Nc1c(ccc3ccccc13)C2c1ccc(Cl)cc1 (stereo not drawn) | 139
3 | CCc1n[nH]c2c1C(c1ccccc1)C(C#N)=C(N)O2 (stereo not drawn) | 192 to 196
4 | Nc1c(Br)cc(Br)c2c1C(=O)c1ccccc1C2=O | 227
5 | CCOC(=O)C12C(c3cc(Cl)ccc3OP1(=O)OCC)C1(C(=O)OCC)C2c2cc(Cl)ccc2OP1(=O)OCC (stereo not drawn) | 256 to 258
6 | ClCc1c(Cl)cccc1Cl | 38
7 | O=[N+]([O-])c1ccc(C#Cc2ccc([N+](=O)[O-])cc2S(=O)(=O)Oc2ccccc2)c(S(=O)(=O)Oc2ccccc2)c1 | 185 to 186
8 | N#CCS(=O)(=O)c1ccccc1 | 112
9 | O=C1C(=O)c2c3ccccc3cc3cccc1c23 | 268 to 270
10 | COC(=O)c1cscc1OC | 70 to 71
11 | CCOP(=S)(OCC)SC(CCl)N1C(=O)c2ccccc2C1=O (stereo not drawn) | 68
12 | O=c1[nH]c(=O)n(C2CC(O)C(CO)O2)cc1C(F)(F)F (stereo not drawn) | 188
13 | COC(=O)c1ccc(N)c(C)c1 | 116 to 117
14 | C/C(=N\CCc1ccccn1)c1c(O)c2ccccc2n(-c2ccccc2)c1=O | 219 to 220
15 | COc1ccc(Cl)cc1C | 34
16 | CC(=O)C(C(C)=O)C(c1ccc(C)o1)c1ccc(C)o1 | 60
17 | CC1CCC(C(C)C)C(OCC(=O)O)C1 (stereo not drawn) | 54
18 | Nc1cc(-c2ccccc2)ccc1O | 200
19 | Nc1ccc(-n2cnc(Cl)c2Cl)cc1 | 104 to 105
20 | C#CCCCCCCCCCCCCCC | 15
21 | O=C=NC12CC3CC(CC(C3)C1)C2 | 144 to 146
22 | CC(C)(C)C(C)(C)Cl | 136
23 | O=Cc1ccccc1OC1CCOCC1 | 67 to 70
24 | CCOC(=O)c1ccc2c(c1)OCO2 | 18.5
25 | CC(C)(C)OC(=O)Nc1ccsc1 | 138 to 140

Row | Structure (SMILES) | melting point [°C]
26 | O=C(O)c1cc([N+](=O)[O-])cc(C(F)(F)F)c1 | 130
27 | Cn1cnc(C=O)c1 | 68 to 69
28 | Cc1cccc(C)c1NC(=O)c1ccc[nH]c1=O | 266
29 | O=C=Nc1cccc(COc2ccccc2)c1 | 51 to 53
30 | CC(C)(O)C#N | -19
31 | CCN(CC)c1cccc(O)c1 | 78
32 | CC(C)(C1CCCCC1)C1CCCCC1 | 15.6
33 | Cc1ccc(C#N)c(F)c1 | 53
34 | Cc1cc(C2(c3cc(C)c(O)c(CN(CC(=O)O)CC(=O)O)c3)OC(=O)c3ccccc32)cc(CN(CC(=O)O)CC(=O)O)c1O | 181
35 | CCC(COC(=O)c1cc(OC)c(OC)c(OC)c1)(c1ccccc1)N(C)C (stereo not drawn) | 79
36 | CS(=O)(=O)c1ccc(C(=O)C2C(=O)CCCC2=O)c(Cl)c1 | 139
37 | Cc1ccc(C(=O)CCCCl)cc1C | 46 to 49
38 | O=C1C=CC(=O)N1c1cccc(N2C(=O)C=CC2=O)c1 | 198 to 204
39 | COc1ccc(NN=C2C(=O)NC(=O)NC2=O)cc1 | 264
40 | CN(C)c1ccc(C2CC(=O)CC(=O)C2)cc1 | 201 to 204
41 | Clc1ccc(Cl)c(Cl)c1 | 17
42 | O=C(O)C=C(CC(=O)O)C(=O)O | 187 to 191
43 | COC12C(COC(N)=O)C3=C(C(=O)C(C)=C(Nc4cnccc4N)C3=O)N1CC1NC12 (stereo not drawn) | 159
44 | C=COCC(C)C | -112
45 | COc1ccc(Oc2ccc(C(N)=NO)cc2[N+](=O)[O-])cc1 | 174 to 177
46 | Cc1onc(-c2c(Cl)cccc2Cl)c1CCl | 61 to 63
47 | CC(=O)OC[C@@H](OC(C)=O)[C@H](OC(C)=O)[C@H](OC(C)=O)[C@@H](OC(C)=O)c1nnn[nH]1 | 109
48 | COc1ccc(C2(C)CCc3oc4ccccc4c3-c3oc(C)cc32)cc1 (stereo not drawn) | 145
49 | NC(=S)c1ccc(C2OCCO2)cc1 | 150 to 154
50 | COc1ccc(-n2c(=S)[nH]c3ccccc3c2=O)cc1 | 307 to 310

Row | Structure (SMILES) | melting point [°C]
51 | O=C(O)c1ncc[nH]1 | 198
52 | Clc1cncc(Cl)c1N1CCNCC1 | 77 to 80
53 | O=C(Nc1ccc(Oc2ccc(Cl)cc2)c(Cl)c1)c1cc(I)cc(I)c1O | 169
54 | Cc1ccc(OC2CCC3C4CCC5CC(=O)CCC5(C)C4CCC23C)cc1 (stereo not drawn) | 148 to 153
55 | O=C1CCCCCCCCCCCC1 | 25
56 | CC(=O)Nc1ccc2c(c1)CCC2=O | 172
57 | CCOC(=O)c1c(-c2ccc(F)cc2)csc1N | 92.5 to 95.5
58 | CCOC(=O)c1c(N)sc2c1CCCC2 | 116
59 | Cc1nnc2sc(SCc3ccccc3)nn2c1=O | 171 to 172
60 | COc1cccc(CCC(=O)O)c1 | 45
61 | CCCCCOc1ccc(O)cc1 | 46 to 49
62 | Nc1ccc(S(=O)(=O)O)cc1 | 365
63 | NC(=S)c1c(Cl)cc(C(F)(F)F)cc1Cl | 176 to 178
64 | Cc1ccc(C(c2ccc(C)cc2)(C(F)(F)F)C(F)(F)F)cc1 | 82 to 83
65 | Cc1ccc2sc(C(=O)CBr)c(C)c2c1 | 123 to 125
66 | CC(C)(Br)C(=O)NC12CC3CC(CC(C3)C1)C2 | 114 to 115
67 | O=[N+]([O-])c1c(Cl)cccc1Cl | 72.5
68 | O=S(=O)(Cl)c1ccc(-c2cnco2)cc1 | 101
69 | Oc1ccc(O)c(O)c1 | 140
70 | CC(=O)c1ccc(C)cc1O | 21
71 | c1ccc(-c2coc(-c3ccccc3)n2)cc1 | 103
72 | C=C1C(=O)C23C(OC(C)=O)CC4C(C)(C)CCC(OC(C)=O)C4(C=O)C2C(OC(C)=O)CC1C3OC(C)=O (stereo not drawn) | 212
73 | O=C(O)c1ccc(=O)[nH]c1 | 314 to 316
74 | CCOc1ccc2nc3cc(N)ccc3c(N)c2c1 | 226
75 | CCCCCC(=NO)C(C)=O | 59

Row | Structure (SMILES) | melting point [°C]
76 | N#CC1C(=S)NC2(C(=O)Nc3ccccc32)C2=C1CCC2 (stereo not drawn) | 311
77 | Cc1cc(C)c([N+](=O)[O-])c(F)c1 | 56
78 | CC1=NN(CN2CCOCC2)C(=O)/C1=N\Nc1ccc(C(=O)O)cc1 | 187
79 | CC(C=CC=C(C)C=CC1=C(C)C(=O)C(O)CC1(C)C)=CC=CC=C(C)C=CC=C(C)C=CC1=C(C)C(=O)C(O)CC1(C)C (stereo not drawn) | 182
80 | ClCC1CCN(c2ncnc3ccsc23)CC1 | 99 to 100
81 | CC1(/C(=N\Nc2ccc([N+](=O)[O-])cc2[N+](=O)[O-])C(=O)O)CCC(C(=O)O)C1(C)C (stereo not drawn) | 191
82 | CC(=O)Nc1c(I)c(NC(C)=O)c(I)c(C(=O)O)c1I | 300
83 | CC1(c2ccccc2)CC(C(=NOCC(O)CN2CCN(c3ccccc3)CC2)c2cc3ccccc3o2)C1 (stereo not drawn) | 96 to 97
84 | Cc1cccc(Cn2nc(C(C)(C)C)cc2-c2nnc(S)o2)c1 | 129 to 131
85 | COc1ccc(C(c2ccc(OC)cc2)C(Cl)(Cl)Cl)cc1 | 87
86 | Cc1onc(-c2c(Cl)cccc2Cl)c1CO | 107 to 109
87 | Cc1ccc(C(=O)O)o1 | 110
88 | CC(C)(S)C(N)C(=O)O (stereo not drawn) | 212
89 | N#Cc1cc2ccccc2cc1C#N | 253 to 257
90 | CC(C)(Oc1ccc(Cl)cc1)C(=O)OCc1cccnc1 | 48.5
91 | CCCCCCC(O)CCCCCCCCCCC(=O)O (stereo not drawn) | 77.8
92 | CSc1c(C#N)c(N)nc2c(/N=N/c3ccc(F)cc3)c(N)nn12 | 228
93 | Cn1cnc(C#N)c1C#N | 85
94 | FC(F)(F)c1ccc(N2CCCNCC2)nc1 | 50 to 53
95 | C=C1C(=O)C23C(OC)CC4C5(C)CCCC4(COC5)C2C(OC(C)=O)CC1C3OC(C)=O (stereo not drawn) | 160
96 | Cc1c(C)c(C)c(C#N)c(C)c1C | 159
97 | CCOc1ccc(N=Nc2ccc(OCC)cc2)cc1 | 162
98 | COc1ccc(-c2noc(C)c2C(=O)Cl)cc1 | 79 to 81
99 | O=C1NC(=O)c2c(Cl)c(Cl)c(Cl)c(Cl)c21 | 300
100 | COc1ccc(CBr)cc1C(F)(F)F | 77

Row | Structure (SMILES) | melting point [°C]
101 | COc1ccc(C=O)c(Cl)c1OC | 71 to 72
102 | O=C(O)CCCCCC(=O)c1ccccc1 | 85
103 | COc1cccc(OC)c1/C=N/n1c(S)nnc1C(F)(F)F | 178
104 | CC(C)Cc1ccc(C(C)C(=O)NN)cc1 (stereo not drawn) | 76 to 78
105 | CCCCCCCCCCCCCCCCS(=O)(=O)c1ccc(N)cc1 | 115 to 117
106 | COC(=O)C1=C(C(=O)OC)C2(CCl)c3ccccc3C1c1ccccc12 | 169
107 | CC(=O)Nc1ccccc1C=Cc1cc(C=Cc2ccccc2NC(C)=O)c([N+](=O)[O-])cc1[N+](=O)[O-] | 270
108 | Cc1c2ccccc2cc2ccc3ccccc3c12 | 138
109 | O=C=NC1CCC(N=C=O)CC1 (stereo not drawn) | 59 to 64
110 | COc1cccc2c(O)c3ccccc3nc12 | 284 to 287
111 | Oc1cccc2sccc12 | 79.8
112 | COc1ccc([N+](=O)[O-])c(C(=O)O)c1 | 133
113 | O=C=N[Si](N=C=O)(N=C=O)N=C=O | 26
114 | O=c1[nH]c2ccc(Cl)cc2o1 | 192 to 193
115 | N#Cc1nc[nH]c1C#N | 175
116 | Cc1cc2cc(N)ccc2[nH]1 | 152 to 155
117 | O=C(NN=Cc1ccc([N+](=O)[O-])o1)c1ccc(O)cc1 | 298
118 | O=C(O)c1cccc2c1-c1ccc(I)cc1C2 | 265 to 267
119 | CC(=O)OC[C@H]1O[C@@H](Oc2ccc(C)cc2)[C@H](OC(C)=O)[C@@H](OC(C)=O)[C@@H]1OC(C)=O | 125 to 126
120 | CC(=O)c1c(F)ccc(F)c1C(=O)O | 86
121 | O=Cc1ccc(Cl)c([N+](=O)[O-])c1 | 63
122 | CCOC(=O)c1cnn(-c2ccccc2)c1N | 99.5
123 | Cc1ccc2c(c1)OC(C)(c1ccc(C)cc1OC(=O)c1ccccc1)CC2(C)C (stereo not drawn) | 149
